# Reference: publication PMC7948467, “Discovery of an ultraspecific triuret hydrolase (TrtA) establishes the triuret biodegradation pathway” (The Journal of Biological Chemistry, 2020)
# Columns and labels:
# RhdBiuH = molecular target: T1, RhdBiuH (Rhodococcus sp. Mel, UniProt H8ZKV9, C169S); experiment: X-ray crystal structure; format: binding; conditions: cocrystal with biuret; active site; inactive mutant
# T1 construct: recombinant
# TrtA = molecular target: T2, TrtA (Herbaspirillum sp. BH-1, UniProt A0A2N6JFX7); experiment: inhibition of triuret hydrolysis; format: biochemical; conditions: likely competitive; Ki not determinable because biuret contains about 1 mol% triuret; inhibition only above 50 mM, where TrtA precipitates; tag state not stated
# T2 construct: N-terminal 6xHis tag and thrombin site kept, pET28a, E. coli BL21(DE3), codon-optimized; subunit 24 kDa, homodimer
# T2 sequence (A0A2N6JFX7 1-227): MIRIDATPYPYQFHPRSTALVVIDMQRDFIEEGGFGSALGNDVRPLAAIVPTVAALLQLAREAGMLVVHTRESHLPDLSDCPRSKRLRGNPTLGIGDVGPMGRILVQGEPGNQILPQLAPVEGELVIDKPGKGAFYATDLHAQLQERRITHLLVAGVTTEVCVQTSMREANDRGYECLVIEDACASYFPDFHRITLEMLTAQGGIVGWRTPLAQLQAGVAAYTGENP
# [1] = molecular target: T3, CtermDelΔ7+Cleaved His-tag (Herbaspirillum sp. BH-1, UniProt A0A2N6JFX7); experiment: ammonia release, Berthelot assay; format: biochemical; conditions: phosphate buffer, pH 8, 25 °C
# T3 construct: gene trtA
# Text: ammonia release, Berthelot assay on CtermDelΔ7+Cleaved His-tag
# T1 sequence (H8ZKV9 entry or part of it C169S): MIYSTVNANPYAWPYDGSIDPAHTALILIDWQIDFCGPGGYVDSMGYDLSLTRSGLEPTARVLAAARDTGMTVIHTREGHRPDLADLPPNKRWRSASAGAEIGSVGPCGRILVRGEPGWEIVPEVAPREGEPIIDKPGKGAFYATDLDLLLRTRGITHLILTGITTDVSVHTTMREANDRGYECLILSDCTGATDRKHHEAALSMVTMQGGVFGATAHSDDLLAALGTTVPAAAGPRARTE
Km [1],SMILES,X-ray crystal structure (RhdBiuH),inhibition of triuret hydrolysis (TrtA)
,NC(=O)NC(N)=O [biuret],The cocrystal with biuret showed similar mode of binding to that of BiuH,Inhibition data suggests that biuret is a competitive inhibitor
16 ± 2 µM,NC(=O)NC(=O)NC(N)=O [triuret],,
